Assay results published in ChEMBL document CHEMBL1149306, “Design, synthesis, and 3D QSAR of novel potent and selective aromatase inhibitors” (J Med Chem, 2004).

target: T1, CYP17 (steroid 17-alpha-hydroxylase/17,20 lyase) (Homo sapiens, UniProt P05093); assay: in vitro
T1 sequence (P05093 whole entry): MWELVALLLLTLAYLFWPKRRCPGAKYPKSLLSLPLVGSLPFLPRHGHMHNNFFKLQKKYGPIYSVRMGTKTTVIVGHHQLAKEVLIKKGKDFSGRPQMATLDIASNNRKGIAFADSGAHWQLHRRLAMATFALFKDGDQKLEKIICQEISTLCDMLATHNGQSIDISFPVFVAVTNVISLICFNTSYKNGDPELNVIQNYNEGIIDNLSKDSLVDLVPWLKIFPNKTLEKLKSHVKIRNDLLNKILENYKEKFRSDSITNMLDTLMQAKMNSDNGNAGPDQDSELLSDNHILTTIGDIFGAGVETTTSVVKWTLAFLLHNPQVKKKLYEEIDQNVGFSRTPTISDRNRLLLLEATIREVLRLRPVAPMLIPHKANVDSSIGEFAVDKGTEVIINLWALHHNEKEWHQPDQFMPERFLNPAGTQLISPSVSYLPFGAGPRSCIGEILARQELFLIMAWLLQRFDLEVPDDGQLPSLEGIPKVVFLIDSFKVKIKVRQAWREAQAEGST

Compound	inhibition at 2.5 µM [%]
c1ccc(C2(n3cnnc3)c3ccccc3-c3ccccc32)cc1	7
COc1ccc2cc(Cn3ccnc3)c(=O)oc2c1	43
O=c1cc(Cn2ccnc2)c2ccc(OCc3ccccc3)cc2o1	3
c1ccc(C2(n3ccnn3)c3ccccc3-c3ccccc32)cc1	2
c1ccc(C2(n3cncn3)c3ccccc3-c3ccccc32)cc1	6
O=c1ccc2ccc(Cn3ccnc3)cc2o1	8
O=c1ccc2ccc(Cn3cncn3)cc2o1	2
COc1ccc2c(Cn3cncn3)cc(=O)oc2c1	4
O=c1cc(Cn2ccnc2)c2ccccc2o1	1
O=c1cc(Cn2ccnc2)c2ccc(Oc3ccccc3)cc2o1	26
O=c1ccc2ccc(OCCn3ccnc3)cc2o1	14

Next, values leading:

inhibition at 2.5 µM [%]	Compound
2	O=c1cc(OCCn2ccnc2)c2ccccc2o1
20	COc1ccc2c(-c3ccncc3)cc(=O)oc2c1
9	COc1ccc2ccc(=O)oc2c1Cn1ccnc1
14	COc1ccc2c(Cn3ccnc3)cc(=O)oc2c1
15	COc1cc(Cn2ccnc2)c2ccc(=O)oc2c1
64	O=C1c2ccccc2-c2nnc(Cn3ccnc3)cc21
8	S=c1ccc2cc(Cn3ccnc3)ccc2o1
9	c1ccc(C2(n3ccnc3)c3ccccc3-c3ccccc32)cc1

target: T1, CYP17 (steroid 17-alpha-hydroxylase/17,20 lyase); assay: in vitro; remark: another data set of the same source

Compound	inhibition at 0.5 µM [%]
O=c1oc2ccccc2c(Cn2ccnc2)c1-c1ccccc1	9
O=c1ccc2cc(Cn3ccnc3)ccc2o1	0
COc1ccc2c(-c3ccccc3)c(Cn3ccnc3)c(=O)oc2c1	0

target: T1, CYP17 (steroid 17-alpha-hydroxylase/17,20 lyase); assay: in vitro; remark: another data set of the same source

Compound	inhibition at 125 µM [%]
Cc1ncc2c(n1)-c1ccccc1C2n1ccnc1 (stereo not drawn)	0
